Read-outs that look alike come from different tables or passages of the source.
Assays:
[1] = Observed pharmacokinetics of antiretrovirals in nonobese and obese individuals (SHCS therapeutic drug monitoring data and literature studies, noncompartmental analysis); conditions: for AUC(0-t) / Cmax / half-life: human, plasma, po, nonobese individuals; for AUC(0-t): AUCt; for AUC(0-t) / Cmax: observed; for AUC(0-t) / Cmax / half-life / Cτ, observed, nonobese individuals: nonobese (BMI range per drug), GM; for half-life: t1/2, observed
Description: (§1) We took several steps to analyse the impact of obesity on the ARVs exposure and response. First, we implemented our in-house PBPK model with our recently published virtual White obese population to simulate the pharmacokinetics of ARVs in nonobese and obese individuals. Next, we verified the simulations against the TDM data collected during the follow-up visits of the SHCS (multiple drug levels per individual were allowed [more information on the SHCS in the homonymous section in the Supplementary Material]). We then applied the verified model to extrapolate the pharmacokinetics across different obesity classes. Finally, the clinical relevance of obesity-related changes on drug response was evaluated by analyzing HIV viral load and the corresponding TDM values in obese and nonobese individuals in the SHCS.
(§2) All ARV drug models, except for doravirine (Supplementary Table 1), were previously developed and verified to predict the pharmacokinetics in healthy and elderly PWH [6, 12]. […] The TDM data were excluded if the participant’s age was younger than 20 or older than 50 years to avoid the age-related confounding effect on the pharmacokinetics, if a nonstandard ARV dosage was used, and if concurrent medications with inhibitory or inducing effects were used. The pharmacokinetic parameters including peak plasma concentration (Cmax), area under the curve to time t (AUCt), and trough concentration (Cτ) were derived from the TDM data using noncompartmental analysis.
(§3) A literature search was also performed to identify pharmacokinetic studies with ARVs conducted in obese and nonobese individuals. Data on the study design, characteristics of the participants, and pharmacokinetic results were collected. […] Available concentration-time profiles were digitalized using GetData Graph Digitizer V.2.26. The virtual trials were conducted by matching the participants’ demographics (eg, age, proportion of females, and BMI) and the ARV dosing regimen (Supplementary Table 2). The models were considered verified if the simulations were within 2-fold of observed data.
The Swiss HIV Cohort Study (SHCS) is an ongoing, nationwide, multicenter, clinic-based prospective cohort study in Switzerland with continuous enrollment and follow-up (twice a year) of people with HIV (PWH). Socio-demographic, clinical and laboratory data are recorded in detail. […] The collection of therapeutic drug monitoring (TDM) data in the SHCS database was initiated in 1998. All available TDM data for each evaluated antiretroviral drug were extracted from the SHCS database representing 6210 and 575 data points for the verification of the simulations in non-obese and obese individuals, respectively.

[2] = PBPK model virtual trials matched to the observed studies (model verification, nonobese vs obese); set-up: species or system human; conditions: for AUCt, Ratio Predicted/Observed, Nonobese / Cmax, Ratio Predicted/Observed, Nonobese / Cτ, Ratio Predicted/Observed, Nonobese / t1/2, Ratio Predicted/Observed, Nonobese: nonobese individuals; for Predictions within x-fold of observed clinical data: pharmacokinetic parameters in obese and nonobese individuals, 1.25-fold 'for the most part'
Description: as §1, §2, §3

HIV viral load = assay: Drug response in obese versus nonobese participants in the SHCS (concentration below efficacy threshold and viral load >50 copies/mL)
Procedure: The viral load was analyzed in conjunction with the TDM data to evaluate whether a decrease in ARV exposure in obese PWH is associated with a viral load of more than 50 copies/mL (the viral load measured on the date of the TDM assessment was considered for this evaluation).

[3] = Black African PWH, median BMI 25.3 vs 32.8 kg/m^2; cited from earlier work
[4] = cited from earlier work; for AUCt, observed, nonobese individuals / Cmax, observed, nonobese individuals / Cτ, observed, nonobese individuals / t1/2, observed, nonobese individuals: standard oral dose at steady state, GM (mean for etravirine, emtricitabine, tenofovir), literature studies only, ref Supplementary Table 2 [9-16, 21-24]
[5] = over 18 mo after switching from tenofovir disoproxil fumarate; cited from earlier work
[6] = standard oral dose at steady state, SHCS TDM data with or without literature data
[7] = BMI 18.5–30 kg/m^2, viral load above 50 copies/mL
[8] = BMI >30 kg/m^2, viral load above 50 copies/mL
[9] = obese (BMI >=30, range per drug), standard oral dose at steady state, GM (mean for etravirine), SHCS TDM data with or without literature data
[10] = obese BMI 36–46 kg/m^2, 245 mg QD, mean, literature study only

Compound	AUC(0-t) [1, 6]	Cmax [1, 6]	half-life [1, 6]	Cτ, observed, nonobese individuals [1, 6]	AUCt, Ratio Predicted/Observed, Nonobese [2]	Cmax, Ratio Predicted/Observed, Nonobese [2]	Cτ, Ratio Predicted/Observed, Nonobese [2]	t1/2, Ratio Predicted/Observed, Nonobese [2]	% PWH with concentration below efficacy threshold (HIV viral load; BMI 18.5–30 kg/m^2)	% PWH with virological failure amongst those with concentration below efficacy threshold (HIV viral load; [7])	% PWH with concentration below efficacy threshold (HIV viral load; BMI >30 kg/m^2)	% PWH with virological failure amongst those with concentration below efficacy threshold (HIV viral load; [8])	Cτ, observed, obese individuals [1, 9]	AUCt, observed, nonobese individuals [4]	Cmax, observed, nonobese individuals [4]	Cτ, observed, nonobese individuals [4]	also measured
O=C(NCc1c(F)cc(F)cc1F)c1cn2c(c(O)c1=O)C(=O)N1[C@H]3CC[C@H](C3)O[C@@H]1C2 [Bictegravir, bictegravir]	85800 ng·h/mL	5240 ng/mL	20.6 h	2373 ng/mL	0.97	0.87	1.01	1.27	1.5%	0%	0%	0%					Predictions within x-fold of observed clinical data [2]: ≤ 1.5 fold
darunavir/ritonavir										1.6%		0%					
Cc1nnc(C(=O)NC(C)(C)c2nc(C(=O)NCc3ccc(F)cc3)c(O)c(=O)n2C)o1 [Raltegravir, raltegravir]				142 ng/mL					4%	1.6%	4.7%	0%	171 ng/mL				
C[C@@H]1CCO[C@H]2Cn3cc(C(=O)NCc4ccc(F)cc4F)c(=O)c(O)c3C(=O)N12 [Dolutegravir, dolutegravir]	45400 ng·h/mL	3320 ng/mL	12.6 h	889 ng/mL					2.1%	0.3%	2.6%	0%	940 ng/mL				Reduction in AUCt, obese vs nonobese [3]: 9%; Reduction in Cmax, obese vs nonobese [3]: 14%; Reduction in Cτ, obese vs nonobese [3]: 1%
Cc1cc(C#N)cc(C)c1Oc1nc(Nc2ccc(C#N)cc2)nc(N)c1Br [Etravirine, etravirine]									32.1%	11.9%	10%	0%	313 ng/mL	7970 ng·h/mL	949 ng/mL	464 ng/mL	
Nc1nc(=O)n([C@@H]2CS[C@H](CO)O2)cc1F [Emtricitabine, emtricitabine]					1.10	0.99	1.35	1.86						9589.4 ng·h/mL	1640.2 ng/mL	67.1 ng/mL	t1/2, observed, nonobese individuals [4]: 9.4 h
CC(C)c1nc(CN(C)C(=O)N[C@H](C(=O)N[C@@H](Cc2ccccc2)C[C@H](O)[C@H](Cc2ccccc2)NC(=O)OCc2cncs2)C(C)C)cs1 [Ritonavir, ritonavir]	5740 ng·h/mL	480 ng/mL	5.4 h	91.4 ng/mL									71.3 ng/mL				
C[C@H](Cn1cnc2c(N)ncnc21)OCP(=O)(O)O [Tenofovir, tenofovir]					1.06	1.00	1.11	1.15						2858.4 ng·h/mL	300.5 ng/mL	58.2 ng/mL	AUCt, Ratio Predicted/Observed, Obese ([2]; obese individuals): 0.95; Cmax, Ratio Predicted/Observed, Obese ([2]; obese individuals): 0.83; Cτ, Ratio Predicted/Observed, Obese ([2]; obese individuals): 1.13; t1/2, Ratio Predicted/Observed, Obese ([2]; obese individuals): 1.75; t1/2, observed, nonobese individuals [4]: 14.9 h; AUCt, observed, obese individuals [4, 10]: 2346 ng·h/mL; Cmax, observed, obese individuals [4, 10]: 263 ng/mL; Cτ, observed, obese individuals [4, 10]: 47 ng/mL; t1/2, observed, obese individuals [4, 10]: 13 h
CC(C)OC(=O)[C@H](C)N[P@](=O)(CO[C@H](C)Cn1cnc2c(N)ncnc21)Oc1ccccc1 [tenofovir alafenamide]																	Increase in weight [5]: 1.7 kg
Cc1cc(/C=C/C#N)cc(C)c1Nc1ccnc(Nc2ccc(C#N)cc2)n1 [Rilpivirine, rilpivirine]					1.05	0.93	0.96	0.65	15%	1.9%	0%	0%	89.2 ng/mL	2333 ng·h/mL	159.7 ng/mL	75.2 ng/mL	Cmax, observed, obese individuals [1, 9]: 147.7 ng/mL; AUCt, Ratio Obese/Nonobese, Observed ([1]; observed data): 0.85; Cmax, Ratio Obese/Nonobese, Observed ([1]; observed data): 0.92; Cτ, Ratio Obese/Nonobese, Observed ([1]; observed data): 1.19; AUCt, Ratio (Predicted Ratio Obese/Nonobese)/(Observed Ratio Obese/Nonobese) [2]: 1.16; Cmax, Ratio (Predicted Ratio Obese/Nonobese)/(Observed Ratio Obese/Nonobese) [2]: 1.09; Cτ, Ratio (Predicted Ratio Obese/Nonobese)/(Observed Ratio Obese/Nonobese) [2]: 0.87; AUCt, Ratio Predicted/Observed, Obese ([2]; obese individuals): 1.23; Cmax, Ratio Predicted/Observed, Obese ([2]; obese individuals): 1.00; Cτ, Ratio Predicted/Observed, Obese ([2]; obese individuals): 0.84; Predictions within x-fold of observed clinical data [2]: ≤ 1.25 fold; t1/2, observed, nonobese individuals [4]: 47.2 h
O=C1Nc2ccc(Cl)cc2[C@@](C#CC2CC2)(C(F)(F)F)O1 [Efavirenz, efavirenz]	52200 ng·h/mL	3170 ng/mL	20.2 h	1751 ng/mL					2.3%	1.1%	5.2%	1.1%	1512 ng/mL				
